Here are results for 25 compounds from patent publication US11731965B2, “Tetrahydroprotoberberine compound, preparation method therefor and uses thereof, and pharmaceutical composition” (SHANGHAI INSTITUTE OF MATERIA MEDICA, CHINESE ACADEMY OF …, priority 2017, dated 2023).

Assay [1] addresses T1, human recombinant D1 receptor (Homo sapiens, UniProt P21728).
T1 construct: expressed in transfected cells; host or cells: HEK293
Description: D1 antagonistic activity test (LANCE cAMP, antagonism of dopamine-induced cAMP production in HEK293 cells). The format is cell-based. To be noted: HEK293 cells expressing human recombinant D1 receptor; test concentration 0.1 nM to 10000 nM; read-out: D1 Antagonistic Activity (IC50, nmol/L). The protocol: • 1) D1 antagonistic activity test
The D1 antagonism of the compound was evaluated by testing the antagonistic action of the compounds against dopamine on the induction of cAMP production in HEK293 cells. The cAMP concentration test was performed according to the method described in the kit instructions. The test concentration of the compound was 0.1 nM to 10000 nM. SCH23390 was used as a positive control. The IC50 was calculated by Excelfit software.
(In general: Time-resolved FRET reads energy transfer from a long-lived donor to a nearby acceptor.)

Assay [2] concerns PCP-induced high spontaneous activity in mice. Description: PCP-induced high spontaneous activity test in mice. The format is in vivo, Male ICR mice. The following applies: dose by gavage that significantly reduces PCP (7 mg/kg ip) induced high spontaneous activity of mice vs model group. Here is the method:
PCP (phencylidine) was dissolved in physiological saline to prepare a 7 mg/kg solution. The test compound was formulated with a 0.5% CMC-Na solution to a solution with suitable concentration, ready-to-use. Male ICR mice were 18-22 g. Mice were randomly divided into a solvent control group, a model control group, a positive control group, and each test drug group during the test. There were 8 mice in each group. Mice in each group were given each test drug by gavage. 45 minutes after the test drug was administered, mice were injected with a PCP (7 mg/kg) solution intraperitoneally. The spontaneous, open field video analysis system was used to record the mouse movement trajectory within 45 min after administration of test drug or saline, and then the mouse movement trajectory within 75 min after PCP administration. Spontaneous, open field video analysis system was used to analyze the mouse's movement trajectory, and the total distance of the movement of the mice in each group was counted. The result was expressed as mean±SD. Results were analyzed by one-way analysis of variance.

Assay [3] deals with T2, human recombinant D2 receptor (Homo sapiens, UniProt P14416).
T2 construct: expressed in transfected cells; host or cells: HEK293
Description: D2 antagonistic activity test (LANCE cAMP, antagonism of dopamine inhibition of cAMP production in HEK293 cells). The format is cell-based. To be noted: HEK293 cells expressing human recombinant D2 receptor; test concentration 0.1 nM to 10000 nM; read-out: D2 Antagonistic Activity (IC50, nmol/L). Here is the method:
LANCE™ cAMP 384 Kit (PerkinElmer, USA) was used to test the antagonism of the compound against the D1 receptor using the HEK293 cells expressing human recombinant D1 receptor. The D1 antagonism of the compound was evaluated by testing the antagonistic action of the compounds against dopamine on the induction of cAMP production in HEK293 cells. The cAMP concentration test was performed according to the method described in the kit instructions. The test concentration of the compound was 0.1 nM to 10000 nM. SCH23390 was used as a positive control. The IC50 was calculated by Excelfit software. The test results of some compounds were shown in Table 1. • 2) D2 antagonistic activity test LANCE™ cAMP 384 Kit (PerkinElmer, USA) was used to test the antagonism of the compound against the D2 receptor using the HEK293 cells expressing human recombinant D2 receptor. The D2 antagonism of the compound was evaluated by testing the antagonistic action of the compounds against dopamine on the inhibition of cAMP production in HEK293 cells. The cAMP concentration test was performed according to the method described in the kit instructions. The test concentration of the compound was 0.1 nM to 10000 nM. Risperidone was used as a positive control. The IC50 was calculated by Excelfit software. The test results of some compounds were shown in Table 1 (ND means the test was not performed).

T1 sequence (P21728 whole entry): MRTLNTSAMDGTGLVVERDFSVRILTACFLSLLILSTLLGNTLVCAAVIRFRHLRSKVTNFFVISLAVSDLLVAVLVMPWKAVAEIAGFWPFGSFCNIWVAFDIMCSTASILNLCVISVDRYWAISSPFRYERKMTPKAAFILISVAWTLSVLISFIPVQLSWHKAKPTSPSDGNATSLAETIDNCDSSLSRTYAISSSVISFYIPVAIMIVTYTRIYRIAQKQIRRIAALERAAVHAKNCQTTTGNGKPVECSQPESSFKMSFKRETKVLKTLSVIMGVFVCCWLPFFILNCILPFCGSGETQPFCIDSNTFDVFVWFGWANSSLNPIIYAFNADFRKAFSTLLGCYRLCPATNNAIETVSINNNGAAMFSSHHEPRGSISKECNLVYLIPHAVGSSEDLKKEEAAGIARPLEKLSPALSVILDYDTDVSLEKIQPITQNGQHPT
T2 sequence (P14416 whole entry): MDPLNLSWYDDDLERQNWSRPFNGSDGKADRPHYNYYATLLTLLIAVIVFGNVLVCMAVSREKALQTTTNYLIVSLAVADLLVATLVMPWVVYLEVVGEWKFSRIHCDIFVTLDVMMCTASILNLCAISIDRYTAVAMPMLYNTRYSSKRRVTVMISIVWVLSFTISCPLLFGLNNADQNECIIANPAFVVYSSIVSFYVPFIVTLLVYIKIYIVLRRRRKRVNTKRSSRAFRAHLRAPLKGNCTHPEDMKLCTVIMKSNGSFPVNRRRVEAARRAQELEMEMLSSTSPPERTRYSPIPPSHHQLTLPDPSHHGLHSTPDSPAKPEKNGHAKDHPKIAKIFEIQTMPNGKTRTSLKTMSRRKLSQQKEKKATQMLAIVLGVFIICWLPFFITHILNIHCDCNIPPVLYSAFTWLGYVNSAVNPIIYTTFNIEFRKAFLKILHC

As to `C=Cc1cc2c(cc1OC)CCN1Cc3c(ccc(OC)c3OC)C[C@@H]21` [Example 17, (S)-2-vinyl-3,9,10-trimethoxy-6,8,13,13a-tetrahydro-5H-dibenzo [a,g] quinolizine], the IC50 is 240 nmol/L in assay [1] and 150 nmol/L in assay [3]. In assay [2], the “Effective Dose” value was found to be 20 mg/kg. In the case of `COc1cc2c(cc1CCO)[C@@H]1Cc3ccc(OC)c(OC)c3CN1CC2` [Example 18, (S)-2-hydroxyethyl-3,9,10-trimethoxy-6,8,13,13a-tetrahydro-5H-dibenzo[a,g] quinolizine], the IC50 came out at 390 nmol/L in assay [1] and 610 nmol/L in assay [3]. Moreover, the “Effective Dose” value in assay [2] stood at 20 mg/kg. `COc1cc2c(cc1OC(F)F)[C@@H]1Cc3ccc(OC)c(OC)c3CN1CC2` [Example 51, (S)-2-(difluoromethoxy)-3,9,10-trimethoxy-6,8,13,13a-tetrahydro-5H-dibenzo[a,g] quinolizine]: the IC50 in assay [3] is 390 nmol/L. On to `COc1cc2c(cc1C=O)[C@@H]1Cc3ccc(OC)c(OC)c3CN1CC2` [Example 6, (S)-2-formyl-3,9,10-trimethoxy-6,8,13,13a-tetrahydro-5H-dibenzo[a,g] quinolizine], for which the IC50 in assay [1] came to 49 nmol/L; in assay [3], 210 nmol/L. As to `COc1cc2c(cc1C)[C@@H]1Cc3ccc(OC)c(OC)c3CN1CC2` [Example 1, (S)-2-methyl-3,9,10-trimethoxy-6,8,13,13a-tetrahydro-5H-dibenzo[a,g] quinolizine], the IC50 was determined as 34.9 nmol/L in assay [1] and 620 nmol/L in assay [3]. Besides, the “Effective Dose” value in assay [2] amounted to 20 mg/kg. Regarding `COc1ccc2c(c1OC)CN1CCc3cc(OC)c4nc[nH]c4c3[C@@H]1C2` [Example 42, (S)-4,10,11-trimethoxy-1,6,7,9,14,14a-hexahydroimidazo[4,5-h] isoquinolino[3,2-a]isoquinoline], the results for the IC50 in assay [1] and in assay [3] were 31.1 nmol/L and 291 nmol/L, respectively. In addition, the “Effective Dose” value in assay [2] amounted to 10 mg/kg.

`COc1ccc2c(c1OC)CN1CCc3cc(OC)c4[nH]c(=S)[nH]c4c3[C@@H]1C2` [Example 41, (S)-4,10,11-trimethoxy-3,6,7,9,14,14a-Hexahydroimidazo[4,5-h] isoquinolino [3,2-a]isoquinoline-2(1H)-thione]: the “Effective Dose” value in assay [2] was found to be 3 mg/kg. Moreover, the IC50 in assay [3] amounted to 20 nmol/L.

`COc1cc2c(cc1C#N)[C@@H]1Cc3ccc(OC)c(OC)c3CN1CC2` [Example 4, (S)-2-cyano-3,9,10-trimethoxy-6,8,13,13a-tetrahydro-5H-dibenzo [a,g] quinolizine]: the IC50 worked out at 310 nmol/L in assay [1] and 950 nmol/L in assay [3]. Take `COc1ccc2c(c1OC)CN1CCc3cc4[nH]c(=O)oc4cc3C1C2` (stereo not drawn) [Example 46, 9,10-Dimethoxy-3,5,6,8,13,13a-Hexahydro-2H-isoquinolino[3,2-a] oxazolo[4,5-g]isoquinolin-2-one]: the IC50 stood at 378 nmol/L in assay [1] and 184 nmol/L in assay [3]. Besides, the “Effective Dose” value in assay [2] is reported as 10 mg/kg. As to `COc1ccc2c(c1OC)CN1CCc3ccc4c(c3C1C2)NC(=O)CO4` (stereo not drawn) [Example 50, 11,12-Dimethoxy-3,7,8,10,15,15a-hexahydroisoquinolino[3,2-a][1,4] oxazino [2,3-h]isoquinoline-2(1H)-one], the IC50 in assay [1] worked out at 855 nmol/L. In assay [2], the “Effective Dose” value came to 10 mg/kg. Turning to `COc1ccc2c(c1OC)CN1CCc3cc4ncoc4cc3C1C2` (stereo not drawn) [Example 45, 9,10-Dimethoxy-6,8,13,13a-tetrahydro-5H-isoquinolino[3,2-a] oxazolo[4,5-g]isoquinoline], the IC50 in assay [1] worked out at 116 nmol/L. On to `COc1ccc2c(c1OC)CN1CCc3cc(OC)c4nn[nH]c4c3[C@@H]1C2` [Example 43, (S)-4,10,11-trimethoxy-1,6,7,9,14,14a-hexahydroisoquinolino[3,2-a] [1,2,3]triazolo[4,5-h]isoquinoline], for which the IC50 in assay [3] is 54 nmol/L. Consider `COc1cc2c(cc1OC)[C@@H]1Cc3ccc(CNC(C)=O)c(OC)c3CN1CC2` [Example 32, (S)-2,3,9-trimethoxy-10-acetaminomethyl-6,8,13,13a-tetrahydro-5H-dibenzo[a,g] quinolizine], for which, in assay [3], the IC50 stood at 663 nmol/L. `COc1cc2c(cc1Br)[C@@H]1Cc3ccc(OC)c(OC)c3CN1CC2` [Example 15, (S)-2-bromo-3,9,10-tritmethoxy-6,8,13,13a-tetrahydro-5H-dibenzo [a,g] quinolizine]: the IC50 was 120 nmol/L in assay [1] and 550 nmol/L in assay [3]. On to `COc1cc2c(cc1OCCO)[C@@H]1Cc3ccc(OCCO)c(OC)c3CN1CC2` [Example 55, (S)-2,10-di(hydroxyethoxy)-3,9-dimethoxy-6,8,13,13a-tetrahydro-5H-dibenzo [a,g] quinolizine], for which the IC50 in assay [1] was 443 nmol/L. Regarding `COc1cc2c(cc1OC)[C@@H]1Cc3ccc(C=O)c(OC)c3CN1CC2` [Example 29, (S)-2,3,9-trimethoxy-10-formyl-6,8,13,13a-tetrahydro-5H-dibenzo [a,g] quinolizine], in assay [3], the IC50 worked out at 2500 nmol/L. For the compound `COc1ccc2c(c1OC)CN1CCc3ccc4oc(=O)[nH]c4c3C1C2` (stereo not drawn) [Example 49, 10,11-Dimethoxy-6,7,14,14a-tetrahydro-1H-isoquinolino[3,2-a] oxazolo[5,4-h] isoquinoline-2 (9H)-one], in assay [1], the IC50 came to 219 nmol/L. The “Effective Dose” value in assay [2] is recorded as 10 mg/kg. On to `COc1cc2c(cc1OC)[C@@H]1Cc3ccc(C(N)=O)c(OC)c3CN1CC2` [Example 28, (S)-2,3,9-trimethoxy-10-carbamoyl-6,8,13,13a-tetrahydro-5H-dibenzo[a,g] quinolizine], for which the IC50 in assay [1] was 2160 nmol/L.

For the compound `COc1cc2c(cc1OC)[C@@H]1Cc3ccc(C)c(OC)c3CN1CC2` [Example 26, (S)-2,3,9-trimethoxy-10-methyl-6,8,13,13a-tetrahydro-5H-dibenzo [a,g] quinolizine], the IC50 in assay [3] worked out at 940 nmol/L. Take `COc1cc2c(cc1OC)[C@@H]1Cc3ccc(OC)c(C=O)c3CN1CC2` [Example 24, (S)-2,3,10-trimethoxy-9-formyl-6,8,13,13a-tetrahydro-5H-dibenzo [a,g] quinolizine]: the IC50 in assay [1] is 1300 nmol/L. `COc1cc2c(cc1NC(C)=O)[C@@H]1Cc3ccc(NC(C)=O)c(OC)c3CN1CC2` [Example 34, (S)-2,10-di(acetamino)-3,9-dimethoxy-6,8,13,13a-tetrahydro-5H-dibenzo[a,g] quinolizine]: the “Effective Dose” value in assay [2] is given as 20 mg/kg.

For `COc1cc2c(cc1OC)[C@@H]1Cc3ccc(CO)c(OC)c3CN1CC2` [Example 30, (S)-2,3,9-trimethoxy-10-hydroxymethyl-6,8,13,13a-tetrahydro-5H-dibenzo[a,g] quinolizine], the IC50 in assay [1] amounted to 1080 nmol/L; in assay [3], 510 nmol/L. As to `COc1cc2c(cc1OC)[C@@H]1Cc3ccc(OC)c(C#N)c3CN1CC2` [Example 19, (S)-2,3,10-trimethoxy-9-cyano-6,8,13,13a-tetrahydro-5H-dibenzo [a,g] quinolizine], in assay [1], the IC50 stood at 1300 nmol/L. In assay [2], the “Effective Dose” value came to 20 mg/kg.

As to `CCCc1cc2c(cc1OC)CCN1Cc3c(ccc(OC)c3OC)C[C@@H]21` [Example 2, (S)-2-n-propyl-3,9,10-trimethoxy-6,8,13,13a-tetrahydro-5H-dibenzo [a,g] quinolizine], the “Effective Dose” value in assay [2] turned out to be 20 mg/kg. For the same compound, the IC50 in assay [3] worked out at 280 nmol/L.

As to `COc1ccc2c(c1OC)CN1CCc3cc4nc[nH]c4cc3C1C2` (stereo not drawn) [Example 44, 9,10-Dimethoxy-1,5,6,8,13,13a-hexahydroimidazo[4,5-g]isoquinolino [3,2-a]isoquinoline], the IC50 in assay [1] stood at 672 nmol/L; in assay [3] it was 139 nmol/L.
